Source: US20080200473A1, “Imidazo [1,2-a]Pyridine Compounds, Compositions, Uses and Methods Thereto” (Ferrer Internacional, S.A., priority 2004, published 2008)

Key:
mice = test: In vivo predictive sedation-hypnosis test (inhibition of traveled distance); design: species or system mouse; conditions: male CD1 mice; single equimolecular intraperitoneal doses; traveled distance over 30 min after dosing (first 5 min discarded) versus control
α1-GABAA receptor = test: Ligand-binding assay, competitive with radiolabeled flumazenil, cerebellum membranes; conditions: Affinity for α1-GABAA receptor, rat cerebellum membranes, radiolabeled flumazenil 1 nM; for % Inhibition 10^−5M: 10^-5M test compound; for % Inhibition 10^−7M: 10^-7M test compound
α2-GABAA receptor = test: Ligand-binding assay, competitive with radiolabeled flumazenil, spinal cord membranes; conditions: Affinity for α2-GABAA receptor, rat spinal cord membranes, radiolabeled flumazenil 1 nM; for % Inhibition 10^−5M: 10^-5M test compound; for % Inhibition 10^−7M: 10^-7M test compound

| Compound | % Inhibition Motor Activity (mice) | % Inhibition 10^−5M (α1-GABAA receptor) | % Inhibition 10^−7M (α1-GABAA receptor) | % Inhibition 10^−5M (α2-GABAA receptor) | % Inhibition 10^−7M (α2-GABAA receptor) |
| --- | --- | --- | --- | --- | --- |
| Cc1ccc(-c2nc3ccc(C)cn3c2CNC(=O)c2nc(C)oc2C)cc1 [Example 83, 2,5-Dimethyl-oxazole-4-carboxylic acid (6-methyl-2-p-tolyl-imidazo[1,2-a]pyridin-3-ylmethyl)-amide] | 93.22% | 100.0% | 93.6% | 93.2% | 71.1% |
| Cc1ccc(-c2nc3ccc(C)cn3c2CNC(=O)c2cnccn2)cc1 [Example 89, Pyrazine-2-carboxylic acid (6-methyl-2-p-tolyl-imidazo[1,2-a]pyridin-3-ylmethyl)-amide] | 74.65% | 100.3% | 88.2% | 98.2% | 54.5% |
| Cc1ccc(-c2nc3ccc(C)cn3c2CNC(=O)c2c(C)noc2C)cc1 [Example 90, 3,5-Dimethyl-isoxazole-4-carboxylic acid (6-methyl-2-p-tolyl-imidazo[1,2-a]pyridin-3-ylmethyl)-amide] | 82.12% | 84.5% | 0.0% | 31.8% | 0.0% |
| Cc1ccc(-c2nc3ccc(C)cn3c2CN(C)C(=O)c2cscn2)cc1 [Example 94, Thiazole-4-carboxylic acid methyl-(6-methyl-2-p-tolyl-imidazo[1,2-a]pyridin-3-ylmethyl)-amide] | 89.33% | 99.5% | 78.5% | 94.5% | 33.2% |
| Cc1ccc(-c2nc3ccc(C)cn3c2CC(=O)N(C)C)cc1 [Zolpidem, reference compound] | 90.80% | 94.4% | 73.6% | 78.2% | 20.1% |
